Experimental data taken from ChEMBL document CHEMBL6153122, “Antimycobacterial Activities of the Zanthoxylum leprieurii Metabolite Adubangoamide and Non-Natural Fagaramide Analogues” (2025).
In brackets after ≈: the same amount, converted by molar mass.

How the values were obtained:
Assay type in all cases: functional
[1] = test system: Mycobacterium tuberculosis; assay: Antimycobacterial activity against drug-susceptible Mycobacterium tuberculosis H37Rv by microplate Alamar blue assay
[2] = test system: Mycobacterium tuberculosis; assay: Potency index, ratio of trans-fagaramide MIC to test compound MIC for antimycobacterial activity against drug-susceptible Mycobacterium tuberculosis H37Rv
[3] = test system: Mycobacterium tuberculosis; assay: Antimycobacterial activity against drug-susceptible Mycobacterium tuberculosis H37Rv

SMILES | MIC [1] [µM] | Ratio [2] | MIC [3] [µM]
O=C(/C=C/c1ccc2c(c1)OCO2)NCc1ccccc1 | 167 (≈ 47 µg/mL) | – | –
CN(C)c1ccc(CNC(=O)/C=C/c2ccc3c(c2)OCO3)cc1 | 6 (≈ 1.95 µg/mL) | 6 | –
CC(C)=CCOc1ccc(/C=C/C(=O)NCC(C)C)cc1 | 10 (≈ 2.87 µg/mL) | 3 | –
O=C(/C=C/c1ccc2c(c1)OCO2)NCc1ccc(N2CCC(C(F)(F)F)CC2)cc1 | 4.5 (≈ 1.95 µg/mL) | 6 | –
O=C(/C=C/c1ccc2c(c1)OCO2)NCc1ccccc1Cl | 100 (≈ 31.6 µg/mL) | – | –
O=C(/C=C/c1ccc2c(c1)OCO2)NCc1ccc(C(F)(F)F)cc1F | 21 (≈ 7.71 µg/mL) | – | –
O=C(/C=C/c1ccc2c(c1)OCO2)NCc1cc(F)cc(F)c1 | 6.1 (≈ 1.94 µg/mL) | 6 | –
O=C(/C=C/c1ccc2c(c1)OCO2)NCc1ccc(N2CCC(c3ccc(F)cc3)CC2)cc1 | 17 (≈ 7.8 µg/mL) | – | –
COc1cccc(CNC(=O)/C=C/c2ccc3c(c2)OCO3)c1 | 200 (≈ 62.3 µg/mL) | – | –
CC(C)CNC(=O)/C=C/c1ccc2c(c1)OCO2 [FOGARAMIDE] | – | – | 32 (≈ 7.91 µg/mL)
CO[C@H]1/C=C/O[C@@]2(C)Oc3c(C)c(O)c4c(O)c(c(/C=N/N5CCN(C)CC5)c(O)c4c3C2=O)NC(=O)/C(C)=C\C=C\[C@H](C)[C@H](O)[C@@H](C)[C@@H](O)[C@@H](C)[C@H](OC(C)=O)[C@@H]1C [RIFAMPIN] | 0.3 (≈ 0.247 µg/mL) | – | –
